Data on 6 compounds can be found in patent US9096548B2, “Pyrazine amide compounds” (Boehringer Ingelheim International GmbH, priority 2013, dated 2015).

Where only a bound is given, the exact number is not on record here.

For one experiment, the target named is T1, ENaC (Epithelial Sodium Channel) (Mus musculus, UniProt Q61180+Q9WU38+Q9WU39).
T1 construct: Mouse kidney M−1 cells were cultivated in DMEM; endogenous in cells; host or cells: Mouse kidney M-1 cells, cultivated with dexamethasone on transwell filters
T1 sequence (Q61180 1-699): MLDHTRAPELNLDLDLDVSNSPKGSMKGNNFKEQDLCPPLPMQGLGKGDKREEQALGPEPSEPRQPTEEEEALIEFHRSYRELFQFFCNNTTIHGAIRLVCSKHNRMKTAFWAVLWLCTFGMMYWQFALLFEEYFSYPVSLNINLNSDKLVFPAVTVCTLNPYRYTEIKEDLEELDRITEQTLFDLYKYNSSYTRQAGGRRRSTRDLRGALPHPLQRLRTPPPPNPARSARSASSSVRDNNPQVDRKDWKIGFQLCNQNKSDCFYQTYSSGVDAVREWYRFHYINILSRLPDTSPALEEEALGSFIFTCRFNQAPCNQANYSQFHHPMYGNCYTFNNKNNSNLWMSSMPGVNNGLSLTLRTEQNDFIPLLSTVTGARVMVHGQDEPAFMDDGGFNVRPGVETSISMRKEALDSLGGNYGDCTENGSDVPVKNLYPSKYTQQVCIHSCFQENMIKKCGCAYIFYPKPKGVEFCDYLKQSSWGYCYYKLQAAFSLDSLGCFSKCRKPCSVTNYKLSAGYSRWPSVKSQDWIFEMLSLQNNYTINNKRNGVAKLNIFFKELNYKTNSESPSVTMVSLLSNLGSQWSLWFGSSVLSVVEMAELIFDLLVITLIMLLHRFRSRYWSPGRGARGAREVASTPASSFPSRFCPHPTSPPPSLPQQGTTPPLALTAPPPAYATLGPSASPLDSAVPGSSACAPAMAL
T1 sequence (Q9WU38 1-638): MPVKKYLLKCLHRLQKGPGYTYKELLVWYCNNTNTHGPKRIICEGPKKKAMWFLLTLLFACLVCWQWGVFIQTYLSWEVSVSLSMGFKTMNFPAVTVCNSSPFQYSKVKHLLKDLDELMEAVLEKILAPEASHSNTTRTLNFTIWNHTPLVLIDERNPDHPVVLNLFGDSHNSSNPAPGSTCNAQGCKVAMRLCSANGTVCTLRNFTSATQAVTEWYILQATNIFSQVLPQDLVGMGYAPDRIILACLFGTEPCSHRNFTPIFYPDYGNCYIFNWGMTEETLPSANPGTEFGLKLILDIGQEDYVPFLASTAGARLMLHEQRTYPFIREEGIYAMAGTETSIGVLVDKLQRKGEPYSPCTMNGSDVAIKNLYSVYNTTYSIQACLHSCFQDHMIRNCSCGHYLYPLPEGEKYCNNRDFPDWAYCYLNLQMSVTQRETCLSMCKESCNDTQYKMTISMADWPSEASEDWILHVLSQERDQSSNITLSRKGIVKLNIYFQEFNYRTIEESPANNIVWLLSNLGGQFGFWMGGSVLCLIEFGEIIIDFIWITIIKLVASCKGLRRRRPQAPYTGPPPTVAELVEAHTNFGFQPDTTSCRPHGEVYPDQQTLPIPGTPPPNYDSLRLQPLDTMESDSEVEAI
T1 sequence (Q9WU39 1-655): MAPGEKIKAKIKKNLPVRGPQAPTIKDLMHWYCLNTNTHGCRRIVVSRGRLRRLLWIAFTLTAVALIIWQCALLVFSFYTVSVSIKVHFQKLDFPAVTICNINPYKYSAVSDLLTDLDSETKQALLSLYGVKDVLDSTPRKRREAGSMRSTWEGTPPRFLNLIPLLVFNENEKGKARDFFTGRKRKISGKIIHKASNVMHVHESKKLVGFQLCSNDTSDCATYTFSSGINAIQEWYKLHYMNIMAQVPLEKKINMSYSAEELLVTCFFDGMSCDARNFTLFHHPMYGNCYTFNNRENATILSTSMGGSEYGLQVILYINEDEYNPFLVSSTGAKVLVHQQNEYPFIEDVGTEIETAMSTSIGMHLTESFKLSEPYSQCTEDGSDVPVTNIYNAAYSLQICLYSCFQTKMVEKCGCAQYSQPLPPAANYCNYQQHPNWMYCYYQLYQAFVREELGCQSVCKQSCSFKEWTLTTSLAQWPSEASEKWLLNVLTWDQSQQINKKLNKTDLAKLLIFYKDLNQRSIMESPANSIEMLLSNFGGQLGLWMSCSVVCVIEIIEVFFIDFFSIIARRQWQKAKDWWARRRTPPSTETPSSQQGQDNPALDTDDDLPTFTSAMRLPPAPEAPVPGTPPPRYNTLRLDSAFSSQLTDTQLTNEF
Put plainly: Ussing Chamber assay (short circuit current, amiloride sensitive I_SC). It is filed as cell-based. As to conditions: Ussing chamber, mouse kidney M-1 cells, short circuit current; unit inferred; read-out: IC50. Put shortly: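 Mouse kidney M-1 cells grown 10–12 days on filters with 5 μM dexamethasone, measured in Caco-2 transport buffer at 37° C under voltage clamp. Compound applied apically at 3 μM or 1-3-10 μM; 3 μM amiloride added at end. Short circuit current inhibition given as percent of amiloride effect or IC50.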
With `Cn1ccnc1CNC(=O)COc1cccc(CCC[N+]2(CCCc3cccc(OCC(=O)NCc4nccn4C)c3)CCC[C@H](NC(=O)c3nc(Cl)c(N)nc3N)C2)c1` [Example 10.11, (S)-3-[(3,5-Diamino-6-chloro-pyrazine-2-carbonyl)-amino]-1,1-bis-[3-(3-{[(1-methyl-1H-imidazol-2-ylmethyl)-carbamoyl]-methoxy}-phenyl)-propyl]-piperidinium hydroxide], the IC50 (in general, the point on the concentration scale where inhibition reaches its midpoint) is 0.007 µM.

Regarding `CCOC(=O)C[N+]1(CCCc2ccc(OC)cc2)CCCC(NC(=O)c2nc(Cl)c(N)nc2N)C1` (stereo not drawn) [Example 12, 3-[(3,5-Diamino-6-chloro-pyrazine-2-carbonyl)-amino]-1-ethoxycarbonylmethyl-1-[3-(4-methoxy-phenyl)-propyl]-piperidinium chloride], the IC50 amounted to 0.15 µM.

Still in this experiment, the particulars now being: Ussing chamber, mouse kidney M-1 cells, short circuit current; value printed in the example text with μM; read-out: IC50.
Turning to `COC(=O)COc1cccc(CCC[N+]2(CCCc3cccc(OCC(=O)OC)c3)CCC[C@H](NC(=O)c3nc(Cl)c(N)nc3N)C2)c1` [Example 10.10, (S)-3-[(3,5-Diamino-6-chloro-pyrazine-2-carbonyl)-amino]-1,1-bis-[3-(3-methoxycarbonylmethoxy-phenyl)-propyl]-piperidinium chloride], the concentration for half-maximal inhibition (IC50) worked out at 0.025 µM.

In the case of `COc1ccc(CCC[N+]2(CC(=O)OC3CCCCC3)CCCC(NC(=O)c3nc(Cl)c(N)nc3N)C2)cc1` (stereo not drawn) [Example 12.1, 1-Cyclohexyloxycarbonylmethyl-3-[(3,5-diamino-6-chloro-pyrazine-2-carbonyl)-amino]-1-[3-(4-methoxy-phenyl)-propyl]-piperidinium chloride], the IC50 came out at 0.21 µM.

Regarding `COc1ccc(CCC[N+]2(CC(=O)O)CCCC(NC(=O)c3nc(Cl)c(N)nc3N)C2)cc1` (stereo not drawn) [Example 13, 1-Carboxymethyl-3-[(3,5-diamino-6-chloro-pyrazine-2-carbonyl)-amino]-1-[3-(4-methoxy-phenyl)propyl]-piperidinium chloride], the IC50 was > 1 µM.

On to `COC(=O)C[N+]1(CCCc2ccc(OC)cc2)CCCC(NC(=O)c2nc(Cl)c(N)nc2N)C1` (stereo not drawn) [Example 14, 3-[(3,5-Diamino-6-chloro-pyrazine-2-carbonyl)-amino]-1-methoxycarbonylmethyl-1-[3-(4-methoxy-phenyl)-propyl]-piperidinium chloride], for which the half-maximal inhibitory concentration (IC50) was found to be 0.137 µM.
